{"source": "patent US9301999B2", "about": "(priority 2009, dated 2016)", "key": {"[1]": {"tested_on": "anti-rPA IgG", "set-up": "species or system female C3H/HeN mice", "conditions": "mouse, in vivo"}, "[2]": {"tested_on": "MC/9 mast cells", "format": "cell-based, murine", "set-up": "MCD10: concentration of peptide necessary to induce degranulation of 10% of mast cells: unit not given here"}, "[3]": {"tested_on": "anthrax lethal toxin", "set-up": "species or system C3H/HeN female mice", "conditions": "mouse, in vivo"}, "[4]": {"tested_on": "anti-PA IgG", "set-up": "species or system Female C3H/HeN mice", "conditions": "mouse, in vivo"}, "[5]": {"tested_on": "anti-rPA serum IgG", "set-up": "species or system C3H/HeN female mice", "conditions": "mouse, in vivo"}, "[6]": {"tested_on": "anti-WNV IgG", "format": "in vivo, Female BALB/c mice", "conditions": "nasal, days 0, 7 and 21, WNV antigen 1 μg + 0.25 or 1.25 nmoles peptide; ANOVA p<0.05"}, "[7]": {"tested_on": "anti-rPA IgG", "set-up": "species or system female C3H mice", "conditions": "mouse, in vivo"}}, "note": "Where “and” joins values, the source holds several entries; their conditions need not be identical. Equal values may be shown once. Entries after “also recorded” stand apart in the source; their conditions may differ. Where no end group is shown, it is not given here.", "data": [{"substance": "I N L K A L A A L A K A L L [MP7-OH]", "values": [{"measurement": "serum anti-rPA IgG titers, difference between the -OH and -NH2 forms", "setting": "[1]", "value": "no significant difference"}, {"measurement": "% Mast Cell Degranulation", "setting": "[2]", "value": 2.87, "unit": "%"}]}, {"substance": "INLKAKAALAKKLL-OH [Mastoparan 17]", "values": [{"measurement": "lethal toxin neutralizing antibody response in serum", "setting": "[3]", "value": "did not induce lethal toxin neutralizing responses greater than those detected in mice immunized with rPA alone"}, {"measurement": "% MC/9 Degranulation", "setting": "[2]", "value": 0, "unit": "%"}, {"measurement": "adjuvant activity as determined by serum anti-PA IgG endpoint titers", "setting": "[4]", "value": "did not provide adjuvant activity"}, {"measurement": "serum anti-PA IgG geometric means titers (GMT), adjuvant activity", "setting": "[5]", "value": "did not provide detectable adjuvant activity"}]}, {"substance": "INLKALAALAKALL [Mastoparan 7, INLKALAALAKALL—NH2, reference compound]", "values": [{"measurement": "serum anti-rPA IgG titers, difference between the -OH and -NH2 forms", "setting": "[1]", "value": "no significant difference"}, {"measurement": "lethal toxin neutralizing antibody response in serum", "setting": "[3]", "value": "neutralized anthrax lethal toxin; also recorded: significantly increased versus all other groups"}, {"measurement": "% MC/9 Degranulation", "setting": "[2]", "value": "50.25% and 80.20%"}, {"measurement": "% Mast Cell Degranulation", "setting": "[2]", "value": "72.33% and 54.35% and 39.12%"}, {"measurement": "MCD10: concentration of peptide necessary to induce degranulation of 10% of mast cells", "setting": "[2]", "value": 6.31}, {"measurement": "mast cell degranulation (β-hexosaminidase released into the culture medium)", "setting": "[2]", "value": "induced mast cell degranulation"}, {"measurement": "EC50", "setting": "[2]; read-out: MCD50: concentration of peptide necessary to induce degranulation of 50% of mast cells", "value": 18.1, "unit": "µM"}, {"measurement": "Anti-WNV IgG titers in sera on day 28, versus antigen alone", "setting": "[6]", "value": "significantly greater"}, {"measurement": "serum anti-PA IgG geometric means titers (GMT), adjuvant activity", "setting": "[5]", "value": "significantly increased"}]}, {"substance": "INLKALAALAKKIL [Mastoparan-OH]", "values": [{"measurement": "serum anti-rPA IgG titer versus mice immunized with rPA alone", "setting": "[1]", "value": "not significantly different"}, {"measurement": "adjuvant activity as determined by serum anti-PA IgG endpoint titers", "setting": "[4]", "value": "provided adjuvant activity"}]}, {"substance": "INLKALAALAKKIL-NH2 [Mastoparan]", "values": [{"measurement": "serum anti-rPA IgG titer versus mice immunized with rPA alone", "setting": "[1]", "value": "significantly greater"}, {"measurement": "lethal toxin neutralizing antibody response in serum", "setting": "[3]", "value": "neutralized anthrax lethal toxin; also recorded: significantly increased versus all other groups"}, {"measurement": "% MC/9 Degranulation", "setting": "[2]", "value": 66.60, "unit": "%"}, {"measurement": "MCD10: concentration of peptide necessary to induce degranulation of 10% of mast cells", "setting": "[2]", "value": 33.07}, {"measurement": "mast cell degranulation (β-hexosaminidase released into the culture medium)", "setting": "[2]", "value": "induced mast cell degranulation"}, {"measurement": "adjuvant activity as determined by serum anti-PA IgG endpoint titers", "setting": "[4]", "value": "provided adjuvant activity"}, {"measurement": "serum anti-PA IgG geometric means titers (GMT), adjuvant activity", "setting": "[5]", "value": "significantly increased"}]}, {"substance": "KLKLLLLLKLK-NH2", "values": [{"measurement": "adjuvant activity as determined by serum anti-PA IgG endpoint titers", "setting": "[4]", "value": "did not provide adjuvant activity"}]}, {"substance": "KLKLLLLLKLK-OH", "values": [{"measurement": "adjuvant activity as determined by serum anti-PA IgG endpoint titers", "setting": "[4]", "value": "did not provide adjuvant activity"}]}, {"substance": "cholera toxin [CT, reference compound]", "values": [{"measurement": "Tukey's Multiple Comparison Test versus rPA, Significant? P < 0.05?", "setting": "[7]", "value": "Yes"}, {"measurement": "serum anti-PA IgG geometric means titers (GMT), adjuvant activity", "setting": "[5]", "value": "did not significantly augment"}]}]}
